Data: article PMC7921063, “The Effects of Genetic Mutations and Drugs on the Activity of the Thiamine Transporter, SLC19A2” (The AAPS Journal, 2021)
Read-outs that look alike come from different tables or passages of the source.

Assays:
[1] = target: T1, SLC19A2 (Homo sapiens, UniProt O60779); settings: IC50 published in literature, ref PMID: 27803021; cited from earlier work
T1 sequence (O60779 1-497): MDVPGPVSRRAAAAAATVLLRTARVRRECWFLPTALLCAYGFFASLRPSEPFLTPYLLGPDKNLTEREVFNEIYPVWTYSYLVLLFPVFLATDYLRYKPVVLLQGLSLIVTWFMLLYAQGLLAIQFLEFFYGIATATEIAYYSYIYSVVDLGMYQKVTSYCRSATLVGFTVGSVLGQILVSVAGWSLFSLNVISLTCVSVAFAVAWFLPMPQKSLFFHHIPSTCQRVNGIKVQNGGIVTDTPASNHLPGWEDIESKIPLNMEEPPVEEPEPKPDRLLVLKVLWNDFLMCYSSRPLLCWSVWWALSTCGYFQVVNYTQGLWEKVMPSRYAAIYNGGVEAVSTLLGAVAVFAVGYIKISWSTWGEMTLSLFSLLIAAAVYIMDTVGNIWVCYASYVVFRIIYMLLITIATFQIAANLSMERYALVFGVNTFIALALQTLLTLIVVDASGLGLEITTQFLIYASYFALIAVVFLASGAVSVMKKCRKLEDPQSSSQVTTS

[2] = target: T1, SLC19A2; experiment: SLC19A2 inhibitor screen: [3H]-thiamine uptake in SLC19A2-overexpressing HEK293 cells; type: cell-based; set-up: host or cells: HEK293, stably overexpressing SLC19A2 and transiently transfected with a further 500 ng wild-type plasmid; settings: HEK293, 10 min; for remaining activity at 1000 µM: drug 1 mM, [3H]-thiamine 25 nM, 10 min, HEK293 cells expressing SLC19A2, relative to uptake without inhibitor, read-out: Average % SLC19A2 thiamine uptake; for inhibition at 1000 µM: at 1 mM, read-out: reduction in thiamine transport (designated SLC19A2 inhibitor)
Experimental: (§1) Plasmids encoding wild-type SLC19A2 and three TRMA-associated variants were generated by Genscript Inc. (Piscataway, USA). Methods for generation of stably overexpressing SLC19A2 cell lines and uptake studies have been previously described ([11], [12]). Inhibition and kinetic studies were performed in SLC19A2-overexpressing stable HEK293 cells transiently transfected with an additional 500 ng of SLC19A2 wild-type plasmid.
Prescription drugs associated with MA ([2]) in addition to others belonging to listed drug classes (e.g., proton-pump inhibitors; 63 compounds total) were screened in triplicate at 1 mM to evaluate inhibitory activity against SLC19A2. […] Each plate contained control wells exposed for 10 min (within linear range, Supplemental Figure 1) to [^3H]-thiamine (positive control), [^3H]-thiamine plus 1 mM of amprolium (negative control), and [^3H]-thiamine plus 1 mM of screened drug (3 replicates per drug). Methods have been previously described ([11]). SLC19A2 inhibitors were defined as compounds that decreased SLC19A2-mediated thiamine uptake by 50% or more at 1 mM. For compounds that met this definition, inhibition assays were conducted and IC50 values were calculated by nonlinear fitting using GraphPad Prism 7 (La Jolla, CA) ([11]).
Fig. 3 Common mechanisms of drug-induced megaloblastic anemia and SLC19A2 inhibitor drug screen workflow. A list of drugs associated with inducing megaloblastic anemia through various mechanisms was compiled (a). Each drug was dissolved to a final concentration of 1 mM in buffer containing radiolabeled [^3H] thiamine and exposed to HEK293 cells expressing SLC19A2 wild-type transporter for 10 min.

[3] = target: T2, wild-type SLC19A2 (Homo sapiens, UniProt O60779); experiment: Thiamine transport by wild-type SLC19A2 in transiently transfected HEK293 cells with inhibitor; type: cell-based; settings: 200 μM inhibitor
T2 construct: host or cells: HEK293, transiently transfected
T2 sequence (O60779 1-497): T1 sequence (O60779 1-497)
Experimental: as §1
Fig. 2 Function and expression of TRMA-associated SLC19A2 variants, and the effects of two prescription drugs on SLC19A2-mediated thiamine uptake. […] Figures representative of 3 separate experiments (a). Membrane localization of GFP-tagged SLC19A2 variants. To determine TRMA variant membrane expression, constructs encoding SLC19A2 wild-type and TRMA variants were GFP-tagged and transfected in HEK293 cells. Nuclei were stained with Hoechst 33342 dye (blue) and cells were visualized with confocal microscopy (b)

[4] = set-up: method as in Reference column of Table I (PMIDs, package inserts); settings: maximum plasma concentration, human; ref Table I (PMIDs, package inserts); cited from earlier work
[5] = fraction unbound in plasma, human; ref Table I (PMIDs, package inserts); cited from earlier work
[6] = target: T1, SLC19A2; experiment: IC50 assays for inhibition of SLC19A2-mediated thiamine uptake; type: cell-based; set-up: host or cells: HEK293, stably overexpressing SLC19A2 and transiently transfected with a further 500 ng wild-type plasmid; settings: inhibitor 0 to 1 mM, HEK293
Experimental: as §1
Prescription drugs associated with MA ([2]) in addition to others belonging to listed drug classes (e.g., proton-pump inhibitors; 63 compounds total) were screened in triplicate at 1 mM to evaluate inhibitory activity against SLC19A2. The screen was performed using [^3H]-thiamine (25 nM). Each plate contained control wells exposed for 10 min (within linear range, Supplemental Figure 1) to [^3H]-thiamine (positive control), [^3H]-thiamine plus 1 mM of amprolium (negative control), and [^3H]-thiamine plus 1 mM of screened drug (3 replicates per drug). Methods have been previously described ([11]). SLC19A2 inhibitors were defined as compounds that decreased SLC19A2-mediated thiamine uptake by 50% or more at 1 mM. For compounds that met this definition, inhibition assays were conducted and IC50 values were calculated by nonlinear fitting using GraphPad Prism 7 (La Jolla, CA) ([11]).
Fig. 4 Drug screen and potency studies against SLC19A2-mediated thiamine uptake. In the screen, SLC19A2 inhibitors were defined as compounds that inhibit at least 50% of thiamine uptake compared to the positive control. The positive control was thiamine uptake in the absence of inhibitor. Out of the 63 drugs screened, ten reached that threshold. Of the ten drugs, three (fedratinib, amprolium, and trimethoprim) have IC50 values published in literature (a). […] Figures representative of 3 independent experiments except for pantoprazole

[7] = target: T1, SLC19A2; experiment: Predicted risk of SLC19A2-mediated clinical drug-drug interaction (FDA criteria); set-up: host or cells: HEK293, stably overexpressing SLC19A2 and transiently transfected with a further 500 ng wild-type plasmid; settings: (fu*Cmax)/IC50 > 0.1
Text: Clinical pharmacokinetic data from human studies ([13]–[18]) and drug monograph databases (e.g., Micromedex, FDA) were used to obtain Cmax (maximum plasma concentration) and fu (fraction of drug unbound in the plasma).

[8] = target: human TPK1 (Homo sapiens, UniProt Q9H3S4); experiment: TPK1 enzyme assay (AMP-Glo luminescence), substrate test; type: biochemical; settings: 1 mM compound, 15 μg human TPK, 500 μM ATP, 30 min, 37 °C
Experimental: Methods detailing thiamine pyrophosphokinase 1 (TPK1) enzyme assay development and execution are listed in Supplemental Figure 2 legend.
To determine if the top compounds in the SLC19A2 inhibitor screen (i.e., erythromycin, omeprazole) were substrates of human TPK1, we measured the level of adenosine monophosphate (AMP) generated in a TPK1 enzyme reaction using AMP-Glo™ Assay (Promega).
Luminescence was measured as a proxy for AMP production in human TPK1 reactions exposed to the following compounds: omeprazole 1mM (OME), erythromycin 1mM (ERY), thiamine 1mM (positive control or PC), and no substrate (negative control or NC). Reactions were comprised of 0.5 mL enzyme reaction mixture containing 100 μM MgCl2, 500 μM ATP, pH 7.4, 15 μg of human TPK and 1 mM of tested substrate incubated for 30 min at 37 °C. A negative control reaction was also prepared without added enzyme. Luminescence was measured with a GloMax luminometer (Promega). […] For omeprazole, the signal was not statistically different from the negative control (student’s t-test, p-value = 0.72). Figure representative of 3 independent experiments.

human TPK1, sequence (Q9H3S4 whole entry): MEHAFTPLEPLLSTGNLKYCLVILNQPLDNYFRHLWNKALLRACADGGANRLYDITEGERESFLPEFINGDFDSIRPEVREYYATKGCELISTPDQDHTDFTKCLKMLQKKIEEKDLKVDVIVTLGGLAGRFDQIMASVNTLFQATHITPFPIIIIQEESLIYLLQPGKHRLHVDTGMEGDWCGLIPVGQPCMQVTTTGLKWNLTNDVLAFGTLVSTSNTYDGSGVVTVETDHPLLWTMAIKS

In the case of `COc1cc(Cc2cnc(N)nc2N)cc(OC)c1OC` [Trimethoprim], the IC50 [1] is listed as 6.84 µM, the remaining activity at 1000 µM [2] is listed as 31.7% and the inhibition at 1000 µM [2] is listed as no less than 50%. The “wild-type SLC19A2 thiamine transport activity” value [3] was “abolished” and the Cmax [4] was 3440 nM.

In the case of `COc1ccnc(C[S+]([O-])c2nc3ccc(OC(F)F)cc3[nH]2)c1OC` (stereo not drawn) [Pantoprazole], the fu [5] is given as 0.02 (label), the remaining activity at 1000 µM [2] is given as 46.5% and the inhibition at 1000 µM [2] is given as no less than 50%. The Cmax [4] was 6500 nM and the IC50 [6] was 429 µM.

In the case of `CCN(CC)CCCC(C)Nc1ccnc2cc(Cl)ccc12` (stereo not drawn) [Chloroquine], the fu [5] is given as 0.36-0.39, the Cmax [4] is given as 3.4 nM and the IC50 [6] is given as 301 µM.

For `CC[C@H]1OC(=O)[C@H](C)[C@@H](O[C@H]2C[C@@](C)(OC)[C@@H](O)[C@H](C)O2)[C@H](C)[C@@H](O[C@@H]2O[C@H](C)C[C@H](N(C)C)[C@H]2O)[C@](C)(O)C[C@@H](C)C(=O)[C@H](C)[C@@H](O)[C@]1(C)O` [Erythromycin], the fu [5] is listed as 0.1-0.3, the remaining activity at 1000 µM [2] is listed as 29.8% and the inhibition at 1000 µM [2] is listed as no less than 50%. For the same molecule, the “FDA criteria for clinically relevant transporter inhibition, unbound Cmax/IC50” value [7] was “met the FDA’s criteria for clinically relevant transporter inhibition”, the Cmax [4] was 2300 to 9600 nM and the IC50 [6] was 20 µM. The “Luminescent signal (AMP production) in TPK1 reaction versus negative control” value [8] was “significantly higher than the negative control signal”.

For `COc1ccc2[nH]c([S+]([O-])Cc3ncc(C)c(OC)c3C)nc2c1` (stereo not drawn) [Omeprazole], the fu [5] is given as 0.05 (label), the remaining activity at 1000 µM [2] is given as 26.6% and the inhibition at 1000 µM [2] is given as no less than 50%. The Cmax [4] was 1000 to 10000 nM, the IC50 [6] was 207 µM and the “Luminescent signal (AMP production) in TPK1 reaction versus negative control” value [8] was “statistically similar to the negative control”.

In the case of `COc1c(C)c2c(c(O)c1C/C=C(\C)CCC(=O)OCCN1CCOCC1)C(=O)OC2` [Mycophenolate mofetil], the fu [5] is given as 0.03 (label), the remaining activity at 1000 µM [2] is given as 32.8% and the inhibition at 1000 µM [2] is given as no less than 50%. The Cmax [4] was less than 900 nM and the IC50 [6] was 145 µM.

For `N=C(N)NC(=O)c1nc(Cl)c(N)nc1N` [Amiloride], the fu [5] is given as 0.77, the remaining activity at 1000 µM [2] is given as 44.8% and the inhibition at 1000 µM [2] is given as no less than 50%. For the same molecule, the Cmax [4] was 40 nM and the IC50 [6] was 69 µM.

With `CCCc1ncc(C[n+]2ccccc2C)c(N)n1` [Amprolium] the remaining activity at 1000 µM [2] was 29.1%, the inhibition at 1000 µM [2] was no less than 50% and the “wild-type SLC19A2 thiamine transport activity” value [3] was “abolished”.
